The values below come from publication PMC5923397, “A New Breviane Spiroditerpenoid from the Marine-Derived Fungus Penicillium sp. TJ403-1” (Marine Drugs, 2018).

In data set [1] the test system is SW480. As to the kind of experiment: Cytotoxicity assay (MTT), SW480. Format: cell-based, human. The conditions noted are these: SW480 (colon cancer), 48 h exposure. Here is the method:
(§1) Five human tumor cell lines (HL-60, MM231, A-549, HEP3B, and SW480), together with one non-cancerous cell line, the human normal colonic epithelial cell NCM460, were used in the cytotoxic activity assay. All cells were cultured in DMEM or RPMI-1640 medium (HyClone, Logan, UT, USA), supplemented with 10% fetal bovine serum (HyClone) at 37 °C in a humidified atmosphere with 5% CO2. The cell survival assay was performed using the MTT method. Briefly, 100 μL suspended cells at an initial density of 1 × 10^5 cells/mL were seeded into each well of the 96-well culture plates and allowed to adhere for 12 h before addition of the test compounds. […] After incubation, culture supernatants were removed and exchanged with medium containing 0.5 mg/mL MTT. Then, after 4 h incubation in darkness at 37 °C, the medium was removed, and cells were added with 100 μL dimethyl sulfoxide. The absorbance at 570 nm was measured and data are expressed as averages of three replicates. The value of inhibition was calculated by using the following formula: % inhibition = (1 − ODtreated/ODcontrol) × 100. The IC50 values were calculated by using a standard dose-response curve fitting with Prism (version 5.0, GraphPad Software, La Jolla, CA, USA).

The subject of data set [2] is NCM460. As to the kind of experiment: Cytotoxicity assay (MTT), normal colonic epithelial cell NCM460. Format: cell-based, human. The conditions noted are these: for IC50: MTT, 48 h exposure. How it is done: as §1
In data set [3] the test system is MM231. Put plainly: Cytotoxicity assay (MTT), MM231. In kind it is cell-based, human. The conditions noted are these: MM231 (breast cancer), 48 h exposure. How it is done: as §1
For data set [4], the system named is HEP3B. As to the kind of experiment: Cytotoxicity assay (MTT), HEP3B. In kind it is cell-based, human. The conditions noted are these: HEP3B (hepatic cancer), 48 h exposure. Here is the method: as §1
Data set [5] concerns A-549. As to the kind of experiment: Cytotoxicity assay (MTT), A-549. The following applies: 48 h exposure. In kind it is cell-based, human. Here is the method:
as §1

The test system of data set [6] is HL-60. Put plainly: Cytotoxicity assay (MTT), HL-60. Format: cell-based. The following applies: Homo sapiens, HL-60 (acute leukemia), 48 h exposure. How it is done:
as §1

[7] abbreviates: Homo sapiens, A549, A-549 (lung cancer).

`N.N.[Cl][Pt][Cl]` [Cis-platin, cis-platin, reference compound]: the IC50 (in general, the concentration at which inhibition is half-maximal) amounted to 1.42 ± 0.11 µM in data set [1]; 0.85 ± 0.07 µM in data set [2]; 3.84 ± 0.25 µM in data set [3]; 2.96 ± 0.22 µM in data set [4]; 2.79 ± 0.36 µM in data set [5] (A-549 (lung cancer)).
`CC(=O)O[C@H]1C(=O)[C@@]2(C)[C@H]([C@H](OC(=O)c3ccccc3)[C@]3(O)C[C@H](OC(=O)[C@H](O)[C@@H](NC(=O)c4ccccc4)c4ccccc4)C(C)=C1C3(C)C)[C@]1(OC(C)=O)CO[C@@H]1C[C@@H]2O` [Paclitaxel, paclitaxel, reference compound]: the IC50 in data set [6], in data set [1] (Homo sapiens), in data set [2] (Homo sapiens), in data set [3] (Homo sapiens), in data set [4] (Homo sapiens) and in data set [5] (setting [7]) was less than 0.008 µM in each case.
For `CC1=CC(O)C2C3(C)C(O)CC(=O)C(C)(C)C3CCC2(C)C12Cc1c(c(C)c(C)oc1=O)O2` (stereo not drawn) [compound 1, brevione O], the IC50 in data set [6], in data set [1] (Homo sapiens), in data set [2] (Homo sapiens), in data set [3] (Homo sapiens), in data set [4] (Homo sapiens) and in data set [5] (setting [7]) was greater than 40 µM each time.
As for `CC1=C[C@H](O)[C@@H]2[C@@]3(C)C=CC(=O)C(C)(C)[C@@H]3CC[C@@]2(C)[C@]12Cc1c(c(C)c(C)oc1=O)O2` [compound 2, brevione I], the IC50 in data set [6] was 4.92 ± 0.65 µM; in data set [1] (Homo sapiens), 21.2 ± 2.72 µM; in data set [2] (Homo sapiens), greater than 40 µM; in data set [3] (Homo sapiens) it was greater than 40 µM; in data set [4] (Homo sapiens), 5.5 ± 0.67 µM; in data set [5] (setting [7]) it was 8.6 ± 1.36 µM. Moreover, the “cytotoxic activity against the NCM460 cell” value in data set [2] (result in words) is listed as “no cytotoxic activity”.
Take `CC1=C[C@H](O)[C@@H]2[C@@]3(C)CCC(=O)C(C)(C)[C@@H]3CC[C@@]2(C)[C@]12Cc1c(c(C)c(C)oc1=O)O2` [compound 3, brevione J]: the IC50 in data set [6] is 25.6 ± 3.84 µM; in data set [1] (Homo sapiens), greater than 40 µM; in data set [2] (Homo sapiens), greater than 40 µM; in data set [3] (Homo sapiens), greater than 40 µM; in data set [4] (Homo sapiens), greater than 40 µM; in data set [5] (setting [7]), greater than 40 µM.
Take `CC1=CC(=O)C[C@@H]2O[C@@H]3C=C(C)[C@@]45Oc6c(C)c(C)oc(=O)c6[C@@H]4O[C@H](O)[C@]54CC[C@@H]1[C@@]2(C)[C@@H]34` [compound 4, brevione H]: the IC50 in data set [6], in data set [1] (Homo sapiens), in data set [2] (Homo sapiens), in data set [3] (Homo sapiens), in data set [4] (Homo sapiens) and in data set [5] (setting [7]) was greater than 40 µM throughout.
Take `C=CC(C)(C)C12CC3C(=O)NC(C(C)C)C(=O)N3C1N(C(C)=O)c1ccccc12` (stereo not drawn) [compound 5, brevicompanine G]: the IC50 in data set [6] was 21.8 ± 3.48 µM; in data set [1] (Homo sapiens) it was greater than 40 µM; in data set [2] (Homo sapiens), greater than 40 µM; in data set [3] (Homo sapiens) it was greater than 40 µM; in data set [4] (Homo sapiens), greater than 40 µM; in data set [5] (setting [7]), 18.4 ± 2.15 µM.
